# According to US20220288057A1, “CONJOINT THERAPY FOR TREATING SEIZURE DISORDERS” (XENON PHARMACEUTICALS INC., priority 2021, published 2022):
# Like-named read-outs stand apart in the source and are kept apart here.
# Test system: tonic hindlimb seizure following corneal stimulation in CF-1 mice
# Assay: Mouse maximal electroshock (MES) assay, 60 Hz 50 mA corneal stimulation
# Format: in vivo
# Settings: for IC50: Mus musculus
# Procedure: The interaction of Compound A with other ASMs was evaluated after oral dosing in the mouse maximal electroshock (MES) assay to determine whether some combinations were favorable or unfavorable. Efficacy was quantified by calculating the fraction of animals with a tonic hindlimb seizure following corneal stimulation. Compound Preparation: Compound A was initially solubilized in DMSO. This solution was then added into a 0.5% methyl cellulose solution to create a more even and less aggregated compound suspension. Serial dilutions were prepared from the tube with the highest concentration of Compound A and the compound suspensions were further vortexed prior to animal dosing. The final concentration of DMSO was 5%, an amount with no apparent toxicity or neuroprotection in the MES assay. […] Animals: Adult male CF-1 albino mice (25-35 g) purchased from Harlan-Envigo were used. The mice were housed four per cage and had access to filtered water and chow ad libidum, throughout the experiment. MES Assay: Compounds were administered orally by gavage before testing unless indicated otherwise. During MES testing, a 60-Hz alternating current (50 mA) was delivered for 0.2 seconds through corneal electrodes to the mice. A drop of 0.5% Alcaine solution was placed on the eye prior to current delivery. The electrodes were subsequently placed gently onto the eyes of the animal and the electrical shock was initiated by triggering through a foot-pedal activator. The animals were restrained by hand and gently released as the shock was delivered and the seizure commenced. Animals were monitored for hind limb tonic extension as the end point for this test. Statistical analysis: All statistics were calculated using Prism version 7 software (Graphpad Software). The method used for each experiment is indicated in the results section. Concentration-response curves were calculated as best fits to the equation […] where X was the log of plasma concentration. Unless indicated otherwise, bottom was constrained to be 0. Top was constrained to be the value determined experimentally by vehicle control measurements. Compound A Dose Response: […]
# [1] = Compound A 1 mg/kg PO, 0.5 h before assay
# [2] = Compound A 1 mg/kg PO, 2 h before assay
# [3] = Compound A 2 mg/kg PO, 0.5 h before assay
# [4] = Compound A 2 mg/kg PO, 2 h before assay
# [5] = Compound A 4 mg/kg PO, 0.5 h before assay
# [6] = Compound A 4 mg/kg PO, 2 h before assay
# [7] = Compound A 8 mg/kg PO, 0.5 h before assay
# [8] = Compound A 8 mg/kg PO, 2 h before assay
structure (smiles),measurement,setting,value
"Cc1cc(N2CCc3cc(F)ccc3C2)cc(C)c1NC(=O)CC(C)(C)C [Compound A, N-[4-(6-fluoro-3,4-dihydro-1H-isoquinolin-2-yl)-2,6-dimethylphenyl]-3,3-dimethylbutanamide]",fraction of animals without tonic seizures,Compound A 0.25 mg/kg PO 2 h alone (phenytoin study),0/8
same,fraction of animals without tonic seizures,Compound A 0.75 mg/kg PO 2 h alone (phenytoin study),2/8
same,reduction of the fraction with tonic seizures,Compound A 1 mg/kg,26.7%
same,"maximum % seizures of fitted curve, reflecting efficacy of Compound A alone",Compound A 1 mg/kg PO 2 h,73.3%
same,number of mice without tonic seizures/total,Compound A 1 mg/kg PO 2 h + Vehicle IP 0.5 h (valproic acid study),4/15
same,fraction of mice without tonic seizures,Compound A 1 mg/kg PO 2 h alone (levetiracetam study),2/11
same,fraction of animals without tonic seizures,Compound A 1 mg/kg PO 2 h alone (phenytoin study),2/8
same,number of mice with tonic seizures/total number tested,[1],4/7
same,percentage of mice protected from hindlimb tonic extensor component,[1],42.9%
same,number of mice with tonic seizures/total number tested,[2],5/7
same,percentage of mice protected from hindlimb tonic extension,[2],28.6%
same,number of mice with tonic seizures/total number tested,[3],2/7
same,percentage of mice protected from hindlimb tonic extensor component,[3],71.4%
same,number of mice with tonic seizures/total number tested,[4],4/7
same,percentage of mice protected from hindlimb tonic extension,[4],42.9%
same,fraction of animals without tonic seizures,Compound A 2.5 mg/kg PO 2 h alone (phenytoin study),4/8
same,number of mice with tonic seizures/total number tested,[5],1/7
same,percentage of mice protected from hindlimb tonic extensor component,[5],85.7%
same,number of mice with tonic seizures/total number tested,[6],2/7
same,percentage of mice protected from hindlimb tonic extension,[6],71.4%
same,number of mice with tonic seizures/total number tested,[7],3/7
same,percentage of mice protected from hindlimb tonic extensor component,[7],71.4%
same,number of mice with tonic seizures/total number tested,[8],1/7
same,percentage of mice protected from hindlimb tonic extension,[8],85.7%
same,fraction of mice without tonic seizures,Compound A […] PO 2 h alone (levetiracetam study),3/8
same,IC50,"Compound A PO alone, data 2 hours after dosing, read-out: IC50 based upon brain concentration (inhibition of tonic seizures)",0.275 µM
same,IC50,"Compound A PO alone, data 2 hours after dosing, read-out: IC50 based upon plasma concentration (inhibition of tonic seizures)",0.154 µM
same,IC50,"Compound A alone (phenytoin study), read-out: IC50 for Compound A (inhibition of tonic seizures, plasma concentration)",0.147 µM
